Laboratory results from patent US20260049105A1, “SELECTIVE MC4R LIGAND FOR TREATING OBESITY AND COGNITIVE LOSS” (ARIZONA BOARD OF REGENTS ON BEHALF OF THE UNIVERSITY OF …, priority 2022, published 2026).

How the values were obtained:
hMC4R [1] = molecular target: T1, hMC4R (Homo sapiens, UniProt P32245); test: Plasmon waveguide resonance (PWR) spectrum of hMC4R membranes with agonists
T1 construct: expressed in transfected cells; host or cells: HEK293
Description: PWR uses polarized light generated from a CW He—Ne laser (λ=632.8 nm or λ=543.5 nm), which passes through a glass prism under total internal reflection conditions. A thin metal film (Ag), which is deposited on the external surface of the prism, is overcoated with another thin layer of SiO2 as dielectric media. When there is an object attached to the dielectric layer of SiO2, and polarized laser forms a specific incident angle with the outer surface layer, the resonant excitation of collective electronic oscillations (plasmons) happens and generates an evanescent electromagnetic field localized at the dielectric film, which gives the absorption spectrum at that specific angle. This can be used to probe the optical properties of molecules immobilized on the outer surface of the prism. Resonance is achieved either by varying the laser light wavelength at a fixed angle or by varying the angle at a fixed laser wavelength(we used the latter one in this research). Any changes of the immobilized yield distinct incident angle that evanescence happens in the dielectric layer. Due to the ability that laser light can be polarized to either parallel (p) or perpendicular (s) to the incident plane, characterization of the molecular organization of anisotropic systems can be fulfilled, such as biomembranes containing integral proteins. Under the experimental conditions described herein, the optical parameters obtained with the p-polarization refer to the perpendicular direction, and those obtained with s-polarization refer to the parallel direction, relative to the bilayer membrane surface.
Resonance spectra in this study were obtained using a PWR instrument from Biopeptek Pharmaceuticals LLC. […] Recombinant HEK293 cells expressing the hMC4R were grown to confluency. The confluent cell monolayers were then washed with Ca^2+ and Mg^2+-deficient phosphate-buffered saline and were harvested in the same buffer containing 0.02% ethylenediaminetetraacetic acid (EDTA). After centrifugation at 1500 g for 10 minutes, the cells were homogenized in an ice-cold 10 mM Tris-HCl buffer and 1 mM EDTA (pH 7.4). A crude membrane fraction was collected by centrifugation at 40,000 g for 20 minutes at −4° C. and was stored at −80° C. until use. Before the PWR experiment, the membrane fraction was resuspended in a 20 mM Tris-HCl buffer (pH 7.4) by mild homogenization. Protein concentration was determined by using a Bradford assay.
Under the experimental conditions employed herein, the oscillation of light with p-polarization reflects the dimension of objects perpendicular to the membrane, and those obtained under the s-polarization vector refer to the dimension in parallel with the bilayer membrane surface.

hMC3R [2] = molecular target: T2, hMC3R (Homo sapiens, UniProt P41968); test: Adenylate cyclase (cAMP) assay in transfected HEK293 cells; type: cell-based; conditions: HEK293, 0.05 h; hM3CR; cAMP at 10 μM in relation to MT-II; read-out: Act %
T2 construct: expressed in transfected cells; host or cells: HEK293
T2 sequence (P41968 whole entry): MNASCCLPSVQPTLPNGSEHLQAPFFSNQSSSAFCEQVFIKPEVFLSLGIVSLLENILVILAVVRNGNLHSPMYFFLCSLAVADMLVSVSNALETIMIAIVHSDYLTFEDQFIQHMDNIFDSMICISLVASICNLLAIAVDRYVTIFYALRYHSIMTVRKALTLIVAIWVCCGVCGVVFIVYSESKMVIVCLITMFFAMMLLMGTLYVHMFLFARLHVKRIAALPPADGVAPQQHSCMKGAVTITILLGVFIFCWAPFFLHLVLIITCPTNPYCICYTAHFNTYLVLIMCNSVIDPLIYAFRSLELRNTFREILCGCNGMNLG
Description: (§1) HEK293 cells transfected with human melanocortin receptors were grown to confluence in MEM medium (GIBCO) containing 10% fetal bovine serum, 100 units/mL penicillin and streptomycin, and 1 mM sodium pyruvate. The cells were seeded on 96 well plates 48 hours before the assay, (100,000 cells/well). For the assay, the medium was removed and cells were rinsed with 1 mL of MEM buffer (GIBCO) or with Earle's balanced salt solution (EBSS, GIBCO). An aliquot (0.4 mL) of Earle's balanced salt solution was placed in each well along with isobutylmethylxanthine (IBMX; 5 μL; 0.5 mM) for 1 minute at 37° C. Varying concentrations of melanotropins (0.1 mL) were added and the cells incubated for 3 minutes at 37° C. The reaction was stopped by aspirating the buffer and adding ice-cold Tris/EDTA buffer to each well (0.15 mL). The 96 well plates were covered and placed on ice. After dislodging the cells, the plates were placed in a boiling water bath for 15 minutes. The cell lysate was then centrifuged for 10 minutes (4000 rpm), and 50 μL of the supernatant was aliquoted into perkinElmer glass fiber filter plate. cAMP content was measured by competitive binding assay in addition to 50 μL H^3 cAMP and 100 μL PKA. Then the system was placed on ice for 2 hours and then vacuum and filtered. 100 μL of the OptiPhase Supermix scintillation fluid was added to the plate. The plates stayed for 8 hours and then read by MicroBeta radiation plate reader.
(§2) IC50 and EC50 values represent the mean of duplicate experiments performed in triplicate. IC50 and EC50 estimates and their associated standard errors were determined by fitting the data using nonlinear least-squares analysis, with the help of Graphpad Prism 6.0 (Graphpad Software, San Diego, CA).
(§3) NA indicates 0% cAMP accumulation observed at 10 μM. The peptides were tested over a range of concentrations from 10^-10 to 10^-5 M.

hMC5R [3] = molecular target: T3, hMC5R (Homo sapiens, UniProt P33032); test: as above; type: cell-based; conditions: HEK293, 0.05 h; hM5CR; cAMP at 10 μM in relation to MT-II; read-out: Act %
T3 construct: expressed in transfected cells; host or cells: HEK293
T3 sequence (P33032 whole entry): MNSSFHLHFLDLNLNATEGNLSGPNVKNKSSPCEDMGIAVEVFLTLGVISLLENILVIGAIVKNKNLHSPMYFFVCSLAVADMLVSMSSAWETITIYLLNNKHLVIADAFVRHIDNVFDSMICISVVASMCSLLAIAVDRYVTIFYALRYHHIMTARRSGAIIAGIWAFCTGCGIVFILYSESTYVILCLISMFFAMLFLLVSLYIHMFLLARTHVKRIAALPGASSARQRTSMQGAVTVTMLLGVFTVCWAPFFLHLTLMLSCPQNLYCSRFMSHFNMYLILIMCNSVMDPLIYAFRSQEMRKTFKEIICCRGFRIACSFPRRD
Description: as §1, §2, §3

hMC1R [4] = molecular target: T4, hMC1R (Homo sapiens, UniProt Q01726); test: as above; type: cell-based; conditions: HEK293, 0.05 h; hM1CR; cAMP at 10 μM in relation to MT-II; read-out: Act %
T4 construct: expressed in transfected cells; host or cells: HEK293
T4 sequence (Q01726 whole entry): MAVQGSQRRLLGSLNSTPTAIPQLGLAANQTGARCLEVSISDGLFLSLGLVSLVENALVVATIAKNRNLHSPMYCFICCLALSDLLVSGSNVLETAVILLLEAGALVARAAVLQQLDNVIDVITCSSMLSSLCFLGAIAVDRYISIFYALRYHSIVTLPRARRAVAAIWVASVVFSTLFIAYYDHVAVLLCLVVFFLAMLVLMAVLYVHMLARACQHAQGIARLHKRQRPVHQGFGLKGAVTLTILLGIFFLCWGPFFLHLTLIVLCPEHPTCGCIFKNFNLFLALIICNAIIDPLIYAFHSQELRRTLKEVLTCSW
Description: as §1, §2, §3

hMC5R [5] = molecular target: T3, hMC5R; test: Competitive receptor binding assay, whole HEK293 cells, 125I-NDP-α-MSH; conditions: 40 min; hM5CR; percentage of NDP-α-MSH displacement at 10 μM; read-out: BE %
Description: [The procedure below names another target; the source lists this target under the same test.] (§4) Competition binding experiments were performed on whole cells. The transfected HEK293 cell line with hMC4Rs were seeded on 96 well plates, 48 hours before the assay, 100,000 cells/well. For the assay, the medium was removed and cells were washed twice with a freshly prepared binding buffer containing 100% minimum essential medium with Earle's salt (MEM, GIBCO), 25 mM HEPES (pH 7.4), 0.2% bovine serum albumin, 1 mM 1,10-phenanthroline, 0.5 mg/L leupeptin, and 200 mg/L bacitracin. […] The medium was subsequently removed and each well was washed twice with the assay buffer. The cells are lysed by the addition of 250 μL of 0.1 NaOH and 250 μL of 1% Triton X-100. […] Data were analyzed using Graphpad Prism 6.0 (Graphpad Software, San Diego, CA).
as §2, §3

hMC4R [6] = molecular target: T1, hMC4R; test: as above; conditions: for inhibition at 10 µM: 40 min, hM4CR, percentage of [125I]NDP-α-MSH displacement at 10 μM, read-out: BE%
Description: as §4
as §2, with “CA). […]” for “CA).”

hMC4R [7] = molecular target: T1, hMC4R; test: Adenylate cyclase (cAMP) assay in transfected HEK293 cells; type: cell-based; conditions: for Emax at 10 µM: HEK293, 0.05 h, hM4CR, percentage of cAMP produced at 10 μM in relation to MT-II, read-out: Act%
Description: as §1, with “The” for “HEK293 cells transfected with human melanocortin receptors were grown to confluence in MEM medium (GIBCO) containing 10% fetal bovine serum, 100 units/mL penicillin and streptomycin, and 1 mM sodium pyruvate. The”, “reader. IC50 and EC50 values represent the mean of duplicate experiments performed in triplicate. […] NA indicates 0% cAMP accumulation observed at 10 μM. The peptides were tested over a range of concentrations from 10^-10 to 10^-5 M.” for “reader.”

hMC3R [8] = molecular target: T2, hMC3R; test: Competitive receptor binding assay, whole HEK293 cells, 125I-NDP-α-MSH; conditions: 40 min; hM3CR; percentage of NDP-α-MSH displacement at 10 μM; read-out: BE %
Description: [The procedure below names another target; the source lists this target under the same test.] (§5) Competition binding experiments were performed on whole cells. The transfected HEK293 cell line with hMC4Rs were seeded on 96 well plates, 48 hours before the assay, 100,000 cells/well. For the assay, the medium was removed and cells were washed twice with a freshly prepared binding buffer containing 100% minimum essential medium with Earle's salt (MEM, GIBCO), 25 mM HEPES (pH 7.4), 0.2% bovine serum albumin, 1 mM 1,10-phenanthroline, 0.5 mg/L leupeptin, and 200 mg/L bacitracin. […] The medium was subsequently removed and each well was washed twice with the assay buffer. The cells are lysed by the addition of 250 μL of 0.1 NaOH and 250 μL of 1% Triton X-100. The lysed cell was transferred to the 12×75 mm glass tubes and the radioactivity was measured by Wallac 1470 WIZARD Gamma Counter. Data were analyzed using Graphpad Prism 6.0 (Graphpad Software, San Diego, CA).
as §2, §3

hMC1R [9] = molecular target: T4, hMC1R; test: as above; conditions: for inhibition at 10 µM: 40 min, hM1CR, percentage of NDP-α-MSH displacement at 10 μM, read-out: BE %; for hMC1R binding affinity (in words): compared with the other analogues
Description: [The procedure below names another target; the source lists this target under the same test.] as §5, §2, §3

T1 sequence (P32245 whole entry): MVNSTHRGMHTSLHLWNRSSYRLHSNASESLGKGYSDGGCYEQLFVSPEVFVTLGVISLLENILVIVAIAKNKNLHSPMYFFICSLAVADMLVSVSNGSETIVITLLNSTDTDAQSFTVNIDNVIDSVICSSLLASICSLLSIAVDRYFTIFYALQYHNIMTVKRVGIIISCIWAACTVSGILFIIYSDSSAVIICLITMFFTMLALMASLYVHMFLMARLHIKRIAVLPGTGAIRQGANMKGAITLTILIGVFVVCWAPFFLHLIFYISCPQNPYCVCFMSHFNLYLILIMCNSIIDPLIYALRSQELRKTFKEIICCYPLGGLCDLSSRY

Structure (SMILES) | PWR left shift under p-polarization relative to hMC4R sole (hMC4R [1]; p-polarization, left shifted) | PWR absorbance location under s-polarization (hMC4R [1]; s-polarization, sole MC4R 33.29) | Emax at 10 µM (hMC3R [2]) | Emax at 10 µM (hMC5R [3]) | Emax at 10 µM (hMC1R [4]) | inhibition at 10 µM (hMC5R [5]) | inhibition at 10 µM (hMC4R [6]) | Emax at 10 µM (hMC4R [7]) | inhibition at 10 µM (hMC3R [8]) | inhibition at 10 µM (hMC1R [9]) | hMC1R binding affinity (in words) (hMC1R [9]) | times higher in binding affinity to hMC4R than hMC1R (hMC4R [6]; hMC4R vs hMC1R) | times higher in binding affinity to hMC4R than hMC3R (hMC4R [6]; hMC4R vs hMC3R) | times higher in binding affinity to hMC4R than hMC5R (hMC4R [6]; hMC4R vs hMC5R) | selectivity for hMC4R (in words) (hMC4R [7]; comparing the EC50 of a compound for each receptor) | PWR peak location under p-polarization (hMC4R [1]; p-polarization, hMC4R sole 26.44) | PWR shift under s-polarization (in words) (hMC4R [1]; s-polarization)
CC(=O)N[C@@H](CCCNC(=N)N)C(=O)N[C@H]1CSSC[C@@H](C(N)=O)NC(=O)[C@H](Cc2c[nH]c3ccccc23)NC(=O)[C@H](CCCNC(=N)N)NC(=O)[C@@H](Cc2ccccc2)NC(=O)[C@H](Cc2c[nH]cn2)NC(=O)[C@@H](C)NC1=O [RM493, reference compound] | 0.25 degrees | 32.97 |  |  |  |  |  |  |  |  |  |  |  |  |  |  | 
CC(=O)N[C@@H](CCCNC(=N)N)C(=O)N[C@H]1CC(=O)NCCCC[C@@H](C(N)=O)NC(=O)[C@H](Cc2c[nH]c3ccccc23)NC(=O)C[C@H](CCCNC(=N)N)NC(=O)[C@@H](Cc2ccccc2)NC(=O)[C@@H]2CCCCN2C1=O [compound 2, Ac-Arg-cyclo[Asp-Pip-D-Phe-βArg-Trp-Lys]-NH2] |  |  | 89% | 90% | 120% | 0% | 100% | 67% | 24% | 100% |  |  |  |  |  |  | 
CC(=O)N[C@@H](CCCNC(=N)N)C(=O)N[C@H]1CC(=O)NCCCC[C@@H](C(N)=O)NC(=O)C[C@H](Cc2c[nH]c3ccccc23)NC(=O)C[C@H](CCCNC(=N)N)NC(=O)[C@@H](Cc2ccccc2)NC(=O)[C@@H]2CCCCN2C1=O [compound 3, Ac-Arg-cyclo[Asp-Pip-D-Phe-βArg-BTrp-Lys]-NH2] |  |  | 87% | 82% | 82% | 46% | 100% | 84% | 100% | 30% | lower binding affinities than the others |  |  |  |  |  | 
CC(=O)N[C@@H](CCCNC(=N)N)C(=O)N[C@H]1CC(=O)NCCCC[C@@H](C(N)=O)NC(=O)C[C@H](Cc2c[nH]c3ccccc23)NC(=O)[C@H](CCCNC(=N)N)NC(=O)[C@@H](Cc2ccc(F)cc2)NC(=O)[C@@H]2CCCCN2C1=O [compound 4, Ac-Arg-cyclo[Asp-Pip-D-Phe(4-F)-Arg-BTrp-Lys]-NH2] |  |  | 76% | 72% | 90% | 100% | 9% | 46% | 100% | 100% |  |  |  |  |  |  | 
CC(=O)N[C@@H](CCCNC(=N)N)C(=O)N[C@H]1CC(=O)NCCCC[C@@H](C(N)=O)NC(=O)C[C@H](Cc2c[nH]c3ccccc23)NC(=O)C[C@H](CCCNC(=N)N)NC(=O)[C@@H](Cc2ccc(F)cc2)NC(=O)[C@@H]2CCCCN2C1=O [compound 6, Ac-Arg-cyclo[Asp-Pip-D-Phe(4-F)-βArg-BTrp-Lys]-NH2] |  |  | 49% | 51% | 61% | 90% | 59% | 120% | 39% | 0% | lower binding affinities than the others |  |  |  |  |  | 
CC(=O)N[C@@H](CCCNC(=N)N)C(=O)N[C@H]1CC(=O)NCCCC[C@@H](C(N)=O)NC(=O)C[C@H](Cc2c[nH]c3ccccc23)NC(=O)[C@H](CCCNC(=N)N)NC(=O)[C@@H](Cc2ccc(Cl)cc2)NC(=O)[C@@H]2CCCCN2C1=O [compound 7, Ac-Arg-cyclo[Asp-Pip-D-Phe(4-Cl)-Arg-BTrp-Lys]-NH2] |  |  | 24% | 21% | 67% | 0% | 100% | 57% | 70% | 100% |  |  |  |  |  |  | 
CC(=O)N[C@@H](CCCNC(=N)N)C(=O)N[C@H]1CC(=O)NCCCC[C@@H](C(N)=O)NC(=O)[C@H](Cc2c[nH]c3ccccc23)NC(=O)C[C@H](CCCNC(=N)N)NC(=O)[C@@H](Cc2ccc(Cl)cc2)NC(=O)[C@@H]2CCCCN2C1=O [compound 8, Ac-Arg-cyclo[Asp-Pip-D-Phe(4-Cl)-βArg-Trp-Lys]-NH2] |  |  | 46% | 38% | 89% | 0% | 100% | 66% | 100% | 100% |  |  |  |  |  |  | 
CC(=O)N[C@@H](CCCNC(=N)N)C(=O)N[C@H]1CC(=O)NCCCC[C@@H](C(N)=O)NC(=O)C[C@H](Cc2c[nH]c3ccccc23)NC(=O)C[C@H](CCCNC(=N)N)NC(=O)[C@@H](Cc2ccc(Cl)cc2)NC(=O)[C@@H]2CCCCN2C1=O [compound 9, Ac-Arg-cyclo[Asp-Pip-D-Phe(4-Cl)-βArg-BTrp-Lys]-NH2] |  |  | 63% | 76% | 90% | 75% | 100% | 87% | 10% | 100% | lower binding affinities than the others | about 68 times | over 1000 times | over 1000 times | selective agonist of hMC4R | 26.95 | no significant change
